From patent US10106515B2, “1-(cyclopent-2-en-1-yl)-3-(2-hydroxy-3-(arylsulfonyl)phenyl)urea derivatives as CXCR2 inhibitors” (GLAXOSMITHKLINE INTELLECTUAL PROPERTY DEVELOPMENT LIMITED, priority 2014, dated 2018)
Where a name gives a salt, the structure may show the parent alone.

Target: T1, recombinant human CXCR2 (Homo sapiens, UniProt P25025)
T1 construct: TEV protease site; Gal4-VP16 transcription factor
T1 sequence (P25025 1-360): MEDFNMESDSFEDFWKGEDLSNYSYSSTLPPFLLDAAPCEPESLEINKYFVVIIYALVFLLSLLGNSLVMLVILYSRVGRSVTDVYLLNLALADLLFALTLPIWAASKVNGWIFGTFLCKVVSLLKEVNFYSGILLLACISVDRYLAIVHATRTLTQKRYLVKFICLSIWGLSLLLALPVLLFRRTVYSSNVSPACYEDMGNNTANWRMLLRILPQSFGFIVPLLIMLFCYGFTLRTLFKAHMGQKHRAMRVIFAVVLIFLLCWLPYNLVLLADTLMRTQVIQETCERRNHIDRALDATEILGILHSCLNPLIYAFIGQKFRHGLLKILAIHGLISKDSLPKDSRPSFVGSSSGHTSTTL
Test: CXCR2 Tango assay
Assay type: cell-based
Settings: mean pIC50 of multiple test results; stimulated with 80 nM hCXCL1; reporter gene blue/green emission ratio; read-out: pIC50 (CXCR2 Tango assay) (converted)
Method in brief: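 Mean pIC50 comes from sigmoidal fits of the blue/green (460/530 nm) CCF4-AM ratio, normalized between hCXCL1-stimulated and DMSO controls. Compounds in 10-point dose response were incubated overnight at 37 °C with recombinant human CXCR2 Tango cells (~10,000/well) and 80 nM hCXCL1, with reporter read-out via arrestin-TEV release of Gal4-VP16.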

IC50	Compound
≤ 10 nM	CC1=CCCC1NC(=O)Nc1ccc(Cl)c(S(=O)(=O)N2CC(F)(F)C2)c1O (stereo not drawn) [Compound 111, 1-(4-chloro-3-((3,3-difluoroazetidin-1-yl)sulfonyl)-2-hydroxyphenyl)-3-(2-methylcyclopent-2-en-1-yl)urea]
≤ 10 nM	CC1=CCC[C@H]1NC(=O)Nc1ccc(Cl)c(S(=O)(=O)C2CCN(CC(F)F)CC2)c1O [Compound 80, (R)-1-(4-chloro-3-((1-(2,2-difluoroethyl)piper-idin-4-yl)sulfonyl)-2-hydroxyphenyl)-3-(2-methylcyclopent-2-en-1-yl)urea trifluoroacetic acid salt]
≤ 10 nM	CCC1=CCCC1NC(=O)Nc1ccc(Cl)c(S(=O)(=O)C(C)C)c1O (stereo not drawn) [Compound 120, 1-(4-chloro-2-hydroxy-3-(isopropylsulfonyl)phenyl)-3-(2-ethylcyclopent-2-en-1-yl)urea]
≤ 1 nM	CC(F)(F)S(=O)(=O)c1c(Cl)ccc(NC(=O)NC2CCC=C2Cl)c1O (stereo not drawn) [Compound 37, 1-(4-chloro-3-((1,1-difluoroethyl)sulfonyl)-2-hydroxyphenyl)-3-(2-chlorocyclopent-2-en-1-yl)urea]
≤ 10 nM	CC1=CCC[C@H]1NC(=O)Nc1ccc(Cl)c(S(=O)(=O)[C@]2(C)CCOC2)c1O [Compound 196, 1-(4-chloro-2-hydroxy-3-(((R)-3-methyltetrahydrofuran-3-yl)sulfonyl)phenyl)-3-((R)-2-methylcyclopent-2-en-1-yl)urea]
> 10000 nM	CC1(S(=O)(=O)c2c(Cl)ccc(NC(=O)N[C@@H]3CCC=C3Cl)c2O)COC1 [Compound 181, (R)-1-(4-chloro-2-hydroxy-3-((3-methyloxetan-3-yl)sulfonyl)phenyl)-3-(2-chlorocyclopent-2-en-1-yl)urea]
≤ 10 nM	CC1=CCCC1NC(=O)Nc1ccc(Cl)c(S(=O)(=O)C(C)(C)c2ccccn2)c1O (stereo not drawn) [Compound 102, 1-(4-chloro-2-hydroxy-3-((2-(pyridin-2-yl)propan-2-yl)sulfonyl)phenyl)-3-(2-methylcyclopent-2-en-1-yl)urea, trifluoroacetic acid salt]
≤ 10 nM	CO[C@@H]1COCC[C@@H]1S(=O)(=O)c1c(Cl)ccc(NC(=O)N[C@@H]2CCC=C2C)c1O [Compound 145, 1-(4-chloro-2-hydroxy-3-(((3R,4S)-3-methoxytetrahydro-2H-pyran-4-yl)sulfonyl)phenyl)-3-((R)-2-methylcyclopent-2-en-1-yl)urea]
≤ 1 nM	CC1=CCCC1NC(=O)Nc1ccc(Cl)c(S(=O)(=O)C(C)(C)C(F)(F)F)c1O (stereo not drawn) [Compound 101, 1-(4-chloro-2-hydroxy-3-((1,1,1-trifluoro-2-methylpropan-2-yl)sulfonyl)phenyl)-3-(2-methylcyclopent-2-en-1-yl)urea]
≤ 1 nM	O=C(Nc1ccc(Cl)c(S(=O)(=O)C2(F)CCOC2)c1O)N[C@@H]1CCC=C1Cl (stereo partly drawn) [Compound 167, 1-(4-chloro-3-((3-fluorotetrahydro-furan-3-yl)sulfonyl)-2-hydroxyphenyl)-3-((R)-2-chlorocyclopent-2-en-1-yl)urea]
≤ 10 nM	CC1(S(=O)(=O)c2c(Cl)ccc(NC(=O)NC3CCC=C3Cl)c2O)CCOCC1 (stereo not drawn) [Compound 44, 1-(4-chloro-2-hydroxy-3-((4-methyltetrahydro-2H-pyran-4-yl)sulfonyl)phenyl)-3-(2-chlorocyclopent-2-en-1-yl)urea]
≤ 10 nM	CC(c1ccccn1)S(=O)(=O)c1c(Cl)ccc(NC(=O)NC2C=CCC2)c1O (stereo not drawn) [Compound 24, 1-(4-chloro-2-hydroxy-3-((1-(pyridin-2-yl)ethyl)sulfonyl)phenyl)-3-(cyclopent-2-en-1-yl)urea, trifluoroacetic acid salt]
≤ 10 nM	CC1=CCCC1NC(=O)Nc1ccc(Cl)c(S(=O)(=O)[C@H]2C[C@H](N(C)C)C2)c1O (stereo partly drawn) [Compound 133, 1-(4-chloro-3-((trans-3-(dimethylamino)cyclobutyl)sulfonyl)-2-hydroxyphenyl)-3-(2-methylcyclopent-2-en-1-yl)urea]
≤ 10 nM	COC[C@H]1C[C@H](S(=O)(=O)c2c(Cl)ccc(NC(=O)NC3CCC=C3C)c2O)C1 (stereo partly drawn) [Compound 153, 1-(4-chloro-2-hydroxy-3-((trans-3-(methoxymethyl)cyclobutyl)sulfonyl)phenyl)-3-(2-methylcyclopent-2-en-1-yl)urea]
≤ 1 nM	O=C(O)C(F)(F)F.[2H]C1(S(=O)(=O)c2c(Cl)ccc(NC(=O)N[C@@H]3CCC=C3Cl)c2O)CCN(C2CCC2)CC1 [Compound 169, (R)-1-(4-chloro-3-((1-cyclobutylpiperidin-4-yl)sulfonyl)-2-hydroxyphenyl)-3-(2-chlorocyclopent-2-en-1-yl)urea-d1, trifluoroacetic acid salt]
≤ 1 nM	CC1=CCC[C@H]1NC(=O)Nc1ccc(Cl)c(S(=O)(=O)C2CC3(COC3)C2)c1O [Compound 77, (R)-1-(3-(2-oxaspiro[3.3]heptan-6-ylsulfonyl)-4-chloro-2-hydroxyphenyl)-3-(2-methylcyclopent-2-en-1-yl)urea]
≤ 10 nM	O=C(Nc1ccc(Cl)c(S(=O)(=O)C2CCOCC2)c1O)NC1CCC=C1Cl (stereo not drawn) [Compound 180, 1-(4-chloro-2-hydroxy-3-((tetrahydro-2H-pyran-4-yl)sulfonyl)phenyl)-3-(2-chlorocyclopent-2-en-1-yl)urea]
≤ 10 nM	CC1=CCCC1NC(=O)Nc1ccc(Cl)c(S(=O)(=O)C(C)(C)C2CCOCC2)c1O (stereo not drawn) [Compound 103, 1-(4-chloro-2-hydroxy-3-((2-(tetrahydro-2H-pyran-4-yl)propan-2-yl)sulfonyl)phenyl)-3-(2-methylcyclopent-2-en-1-yl)urea]
≤ 10 nM	CC(c1ccccn1)S(=O)(=O)c1c(Cl)ccc(NC(=O)NC2CCC=C2Cl)c1O (stereo not drawn) [Compound 26, 1-(4-chloro-2-hydroxy-3-((1-(pyridin-2-yl)ethyl)sulfonyl)phenyl)-3-(2-chlorocyclopent-2-en-1-yl)urea]
≤ 10 nM	CC(C)(CO)S(=O)(=O)c1c(Cl)ccc(NC(=O)N[C@@H]2CCC=C2Cl)c1O [Compound 12, (R)-1-(4-chloro-2-hydroxy-3-((1-hydroxy-2-methylpropan-2-yl)sulfonyl)phenyl)-3-(2-chlorocyclopent-2-en-1-yl)urea]
≤ 1 nM	CC1=CCC[C@H]1NC(=O)Nc1ccc(Cl)c(S(=O)(=O)C2(F)CCN(C3CCC3)CC2)c1O [Compound 73, (R)-1-(4-chloro-3-((1-cyclobutyl-4-fluoropiperidin-4-yl)sulfonyl)-2-hydroxyphenyl)-3-(2-methylcyclopent-2-en-1-yl)urea, trifluoroacetic acid salt]
≤ 10 nM	CO[C@H]1C[C@@H](S(=O)(=O)c2c(Cl)ccc(NC(=O)NC3CCC=C3Cl)c2O)C1 (stereo partly drawn) [Compound 149, 1-(4-chloro-2-hydroxy-3-((cis-3-methoxycyclobutyl)sulfonyl)phenyl)-3-(2-chlorocyclopent-2-en-1-yl)urea]
≤ 10 nM	CC(C)(F)S(=O)(=O)c1c(Cl)ccc(NC(=O)NC2C=CCC2)c1O (stereo not drawn) [Compound 14, 1-(4-chloro-3-((2-fluoropropan-2-yl)sulfonyl)-2-hydroxyphenyl)-3-(cyclopent-2-en-1-yl)urea]
≤ 10 nM	C[C@]1(S(=O)(=O)c2c(Cl)ccc(NC(=O)N[C@@H]3CCC=C3Cl)c2O)CCOC1 (single isomer, unassigned) [Compound 197]
≤ 10 nM	CC(F)(F)S(=O)(=O)c1c(Cl)ccc(NC(=O)NC2C=CCC2)c1O (stereo not drawn) [Compound 36, 1-(4-chloro-3-((1,1-difluoroethyl)sulfonyl)-2-hydroxyphenyl)-3-(cyclopent-2-en-1-yl)urea]
≤ 10 nM	CC1=CCCC1NC(=O)Nc1ccc(Cl)c(S(=O)(=O)C2CCc3nccn3C2)c1O (stereo not drawn) [Compound 108, 1-(4-chloro-2-hydroxy-3-((5,6,7,8-etrahydroimidazo [1,2-a]pyridin-6-yl)sulfonyl)phenyl)-3-(2-methylcyclopent-2-en-1-yl)urea, trifluoroacetic acid salt]
≤ 1 nM	CC1=CCCC1NC(=O)Nc1ccc(Cl)c(S(=O)(=O)[C@H]2CC[C@H](N3CCCC3)CC2)c1O (stereo partly drawn) [Compound 98, 1-(4-chloro-2-hydroxy-3-(((1R,4R)-4-(pyrrolidin-1-yl)cyclohexyl)sulfonyl)phenyl)-3-(2-methylcyclopent-2-en-1-yl)urea, trifluoroacetic acid salt]
≤ 1 nM	O=C(Nc1ccc(Cl)c(S(=O)(=O)C2(F)CCOCC2)c1O)N[C@@H]1CCC=C1Cl [Compound 168, (R)-1-(4-chloro-3-((4-fluorotetrahydro-2H-pyran-4-yl)sulfonyl)-2-hydroxyphenyl)-3-(2-chlorocyclopent-2-en-1-yl)urea]
≤ 10 nM	CC1=CCC[C@H]1NC(=O)Nc1ccc(Cl)c(S(=O)(=O)N2CC(F)C2)c1O [Compound 86, (R)-1-(4-chloro-3-((3-fluoroazetidin-1-yl)sulfonyl)-2-hydroxyphenyl)-3-(2-methylcyclopent-2-en-1-yl)urea trifluoroacetic acid salt]
≤ 1 nM	CN(C)[C@H]1CC[C@@H](S(=O)(=O)c2c(Cl)ccc(NC(=O)NC3CCC=C3Cl)c2O)CC1 (stereo partly drawn) [Compound 130, 1-(4-chloro-3-((cis-4-(dimethylamino)cyclohexyl)sulfonyl)-2-hydroxyphenyl)-3-(2-chlorocyclopent-2-en-1-yl)urea, trifluoroacetic acid salt]
